# Source: PMC5104425, “A Novel Selective Inhibitor of Delta-5 Desaturase Lowers Insulin Resistance and Reduces Body Weight in Diet-Induced Obese C57BL/6J Mice” (PLoS ONE, 2016)
# Experiments:
# rat D6D = molecular target: T1, rat D6D (Rattus norvegicus, UniProt Q9Z122); assay: In vitro enzyme assay for desaturase activity (hepatic microsomes), D6D; format: biochemical
# T1 construct: using hepatic microsomes prepared from SD rats; from tissue; host or cells: liver microsomes of SD rats (CLEA, Japan)
# Description: Therefore, we also confirmed that compound-326 has no effect on D9D activity. Inhibitory activity of compound-326 on rat D5D, D6D, and D9D was evaluated using hepatic microsomes prepared from SD rats (CLEA, Japan) as described previously. Assays were performed in a total volume of 30 μL in 96-well plates in a buffer containing 100 mM NaHPO4, 150 mM KCl, 10 mM NaF, 1.5 mM glutathione, 3 mM MgCl2, 1 mM NADH, 3 mM ATP, 0.3 mM CoA-SH, and 0.1% fatty acid free bovine serum albumin (BSA, Sigma, St. Louis, MO); and 0.1 μCi/well of [^14C] DGLA or [^14C] linoleic acids (ARC, St. Louis, MO) were used as substrates for measuring D5D and D6D activities, respectively. After pre-incubation of the test compound with rat liver microsomes (final 1.0 mg/mL) for 5 min, the reaction was started by the addition of NADH, ATP, and the substrates, and the reaction mixture was incubated for another 120 min at room temperature. For D9D assay, [^14C] stearoyl-CoA (PerkinElmer, Waltham, MA) was used in the absence of NADH, ATP, and CoA-SH, and D9D enzyme reaction was performed for 30 min. The reactions were then terminated by the addition of 0.63 N NaOH. […] 2.3 (Fujifilm) and IC50 values were determined using the conversion ratio from the radioactive substrates (20:3n6, 18:2n6 and 18:0) to the products (20:4n6, 18:3n6 and 18:1n9).
# human D5D = molecular target: T2, human D5D (Homo sapiens, UniProt O60427); assay: In vitro cell-based assay for desaturase activity (HepG2), D5D
# T2 construct: endogenous in cells; host or cells: HepG2
# Description: (§1) HepG2 cells were seeded in 96-well cell culture plates at 100 000 cells/well and incubated overnight in DMEM supplemented with 10% fetal bovine serum, 100 U/mL penicillin, and 100 μg/mL streptomycin in 5% CO2 at 37°C. The cells were washed twice with 200 μL of PBS and incubated with the test compounds in DMEM with 0.1% fatty acid free BSA for 30 min. Then, 0.1 μCi/well of [^14C]-labeled DGLA, linoleic acid, and stearic acid (ARC, St. Louis, MO) were added for each desaturase assay. After incubation for 3 h at 37°C, the cells were washed 3 times with 200 μL of PBS to remove [^14C]-labeled substrates in the medium and 0.63 N of NaOH was added to saponify fatty acids. Radioactive substrates and products were extracted, separated, and analyzed using the method as described above.
# human D6D = molecular target: T3, human D6D (Homo sapiens, UniProt O95864); assay: In vitro cell-based assay for desaturase activity (HepG2), D6D
# T3 construct: endogenous in cells; host or cells: HepG2
# T3 sequence (O95864 1-444): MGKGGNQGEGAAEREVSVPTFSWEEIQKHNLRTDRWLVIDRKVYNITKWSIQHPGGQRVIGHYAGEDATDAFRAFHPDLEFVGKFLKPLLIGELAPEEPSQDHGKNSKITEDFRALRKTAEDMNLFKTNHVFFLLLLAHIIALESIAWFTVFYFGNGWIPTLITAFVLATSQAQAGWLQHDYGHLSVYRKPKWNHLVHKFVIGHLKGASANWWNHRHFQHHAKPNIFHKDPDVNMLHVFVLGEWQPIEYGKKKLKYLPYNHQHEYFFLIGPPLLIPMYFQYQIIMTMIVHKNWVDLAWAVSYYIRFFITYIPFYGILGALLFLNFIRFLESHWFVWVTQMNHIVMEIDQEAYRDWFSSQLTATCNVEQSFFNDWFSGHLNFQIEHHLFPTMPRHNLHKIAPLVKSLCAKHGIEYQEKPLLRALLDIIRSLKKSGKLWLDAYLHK
# Description: as §1
# human D9D = molecular target: T4, human D9D (Homo sapiens, UniProt O00767); assay: In vitro cell-based assay for desaturase activity (HepG2), D9D
# T4 construct: endogenous in cells; host or cells: HepG2
# T4 sequence (O00767 1-359): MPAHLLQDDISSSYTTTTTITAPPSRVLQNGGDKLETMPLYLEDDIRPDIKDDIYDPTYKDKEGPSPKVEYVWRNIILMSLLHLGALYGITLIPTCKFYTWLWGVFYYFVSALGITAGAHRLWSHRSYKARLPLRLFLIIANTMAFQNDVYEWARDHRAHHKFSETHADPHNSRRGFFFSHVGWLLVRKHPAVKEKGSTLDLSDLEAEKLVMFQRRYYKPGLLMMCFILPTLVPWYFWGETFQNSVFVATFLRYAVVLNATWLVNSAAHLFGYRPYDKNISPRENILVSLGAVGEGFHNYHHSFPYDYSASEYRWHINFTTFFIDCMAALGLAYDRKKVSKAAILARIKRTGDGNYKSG
# Description: as §1
# DIO mice = assay: Indirect calorimetry test (energy expenditure, RER) in established DIO mice; format: in vivo, C57BL/6J mice; settings: 10 mg/kg
# Description: To evaluate the effect on daily EE, DIO mice fed a HFD that has 41% kcal from fat and contains no AA (D12079B; Research diets, Inc., see S1 Table for fatty acids composition) for 50 weeks were used. At 55 weeks of age, DIO mice were divided into two weight-matched groups (7 animals per group) and treated with vehicle or 10 mg/kg compound-326 for 11 weeks. […] Indirect calorimetry test was performed on day1, 8, 15, 21, and 56 during the study. Daily EE was analyzed using ANCOVA with body mass as covariate. After the treatment period, mice were sacrificed and fat tissues were harvested to evaluate the weights.
# Energy metabolism was evaluated using an Oxymax indirect calorimetry system (Columbus Instruments, Columbus, OH). Mice were individually housed in the chamber with a 12-h light/dark cycle. VO2 and VCO2 rates were determined with the following Oxymax system settings: air flow, 0.6 L/min; sample flow, 0.5 l/min; settling time, 10 min; and measuring time, 1 min. The system was calibrated against a standard gas mixture to measure O2 consumed (VO2, mL/kg/h) and CO2 generated (VCO2, mL/kg/h). Metabolic rate (VO2) and respiratory exchange ratio (RER; ratio of VCO2/VO2) were evaluated over a 24-h period. Energy expenditure was calculated as the product of the calorific value of oxygen (3.815+1.232×RER) and the volume of O2 consumed.
# T1 sequence (Q9Z122 whole entry): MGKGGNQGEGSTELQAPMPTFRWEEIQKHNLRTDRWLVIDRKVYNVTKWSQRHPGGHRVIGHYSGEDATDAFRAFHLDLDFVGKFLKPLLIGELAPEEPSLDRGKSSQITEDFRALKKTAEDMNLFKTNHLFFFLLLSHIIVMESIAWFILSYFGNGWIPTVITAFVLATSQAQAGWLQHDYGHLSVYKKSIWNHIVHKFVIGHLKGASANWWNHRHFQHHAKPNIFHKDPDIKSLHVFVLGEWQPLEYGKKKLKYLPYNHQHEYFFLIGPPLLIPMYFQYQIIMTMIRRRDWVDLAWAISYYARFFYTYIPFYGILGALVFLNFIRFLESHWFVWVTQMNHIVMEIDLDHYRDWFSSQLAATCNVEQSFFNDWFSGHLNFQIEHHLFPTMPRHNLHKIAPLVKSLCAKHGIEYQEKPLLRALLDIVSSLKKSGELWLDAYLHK
# T2 sequence (O60427 whole entry): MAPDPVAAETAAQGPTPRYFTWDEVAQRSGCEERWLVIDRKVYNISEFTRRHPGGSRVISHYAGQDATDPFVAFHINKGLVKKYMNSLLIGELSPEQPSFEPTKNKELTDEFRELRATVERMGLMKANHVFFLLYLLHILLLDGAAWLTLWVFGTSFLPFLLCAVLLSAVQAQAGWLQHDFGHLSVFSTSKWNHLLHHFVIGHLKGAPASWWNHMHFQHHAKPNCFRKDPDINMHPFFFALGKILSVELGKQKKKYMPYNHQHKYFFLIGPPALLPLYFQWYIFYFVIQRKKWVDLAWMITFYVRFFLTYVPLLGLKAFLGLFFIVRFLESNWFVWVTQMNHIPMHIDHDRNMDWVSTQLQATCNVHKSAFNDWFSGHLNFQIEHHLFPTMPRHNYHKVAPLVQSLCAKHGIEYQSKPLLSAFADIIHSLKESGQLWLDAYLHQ
smiles,measurement,setting,value
"O=C1Cc2c(nc(OCC(F)(F)C(F)(F)F)n(-c3ccc(OCC(F)(F)F)cc3)c2=O)N1 [Compound-326, 2-(2,2,3,3,3-Pentafluoropropoxy)-3-[4-(2,2,2-trifluoroethoxy)phenyl]-5,7-dihydro-3H-pyrrolo[2,3-d]pyrimidine-4,6-dione]",inhibition of D6D activity,rat D6D,almost no inhibition
same,IC50,rat D6D; Enzyme (hepatic microsomes),> 10 µM
same,IC50,human D5D,0.022 µM
same,inhibition of D6D activity,human D6D,almost no inhibition
same,IC50,human D6D; Cell-based (HepG2),> 10 µM
same,IC50,human D9D,> 10 µM
same,daily EE relative to body mass,"DIO mice; day 15, independent of decreased BW",increased
same,daily EE (kcal/day) plotted against body mass,"DIO mice; days 1 and 8, vs vehicle",no difference
same,difference in daily EE lines vs vehicle,DIO mice; days 21 and 56,became more apparent
same,RER,"DIO mice; relative to vehicle through the study, did not reach significance",lower
